Measurements as given in US8741944B2, “Anti-infective agents against intracellular pathogens” (priority 2007, dated 2014).
Like-named read-outs stand apart in the source and are kept apart here.

Key:
SK-OV-3 (Ovarian Cancer) = test: NCI DTP tumor cell line screen (SRB), SK-OV-3
Protocol: (§1) For a typical screening experiment, cells are inoculated into 96 well microtiter plates in 100 μL at plating densities ranging from 5,000 to 40,000 cells/well depending on the doubling time of individual cell lines. After cell inoculation, the microtiter plates are incubated at 37° C., 5% CO2, 95% air and 100% relative humidity for 24 h prior to addition of experimental drugs.
(§2) After 24 h, two plates of each cell line are fixed in situ with TCA, to represent a measurement of the cell population for each cell line at the time of drug addition (Tz). Experimental drugs are solubilized in dimethyl sulfoxide at 400-fold the desired final maximum test concentration and stored frozen prior to use. At the time of drug addition, an aliquot of frozen concentrate is thawed and diluted to twice the desired final maximum test concentration with complete medium containing 50 μg/ml gentamicin. Additional four, 10-fold or ½ log serial dilutions are made to provide a total of five drug concentrations plus control. Aliquots of 100 μl of these different drug dilutions are added to the appropriate microtiter wells already containing 100 μl of medium, resulting in the required final drug concentrations.
(§3) Following drug addition, the plates are incubated for an additional 48 h at 37° C., 5% CO2, 95% air, and 100% relative humidity. For adherent cells, the assay is terminated by the addition of cold TCA. Cells are fixed in situ by the gentle addition of 50 μl of cold 50% (w/v) TCA (final concentration, 10% TCA) and incubated for 60 minutes at 4° C. The supernatant is discarded, and the plates are washed five times with tap water and air dried. Sulforhodamine B (SRB) solution (1001) at 0.4% (w/v) in 1% acetic acid is added to each well, and plates are incubated for 10 minutes at room temperature. After staining, unbound dye is removed by washing five times with 1% acetic acid and the plates are air dried. Bound stain is subsequently solubilized with 10 mM trizma base, and the absorbance is read on an automated plate reader at a wavelength of 515 nm. For suspension cells, the methodology is the same except that the assay is terminated by fixing settled cells at the bottom of the wells by gently adding 50 μl of 80% TCA (final concentration, 16% TCA). Using the seven absorbance measurements [time zero, (Tz), control growth, (C), and test growth in the presence of drug at the five concentration levels (Ti)], the percentage growth is calculated at each of the drug concentrations levels. Percentage growth inhibition is calculated as: [(Ti−Tz)/(C−Tz)]×100 for concentrations for which Ti>/=Tz [(Ti−Tz)/Tz]×100 for concentrations for which Ti<Tz
(§4) Three dose response parameters are calculated for each experimental agent. […] The drug concentration resulting in total growth inhibition (TGI) is calculated from Ti=Tz. […] Values are calculated for each of these three parameters if the level of activity is reached; however, if the effect is not reached or is exceeded, the value for that parameter is expressed as greater or less than the maximum or minimum concentration tested.

SK-MEL-5 (Melanoma) = test: NCI DTP tumor cell line screen (SRB), SK-MEL-5
Protocol: as §1, §2, §3, §4

COLO 205 (Colon Cancer) = test: NCI DTP tumor cell line screen (SRB), COLO 205
Protocol: as §1, §2, §3, §4

MCF7 (Breast Cancer) = test: NCI DTP tumor cell line screen (SRB), MCF7; settings: MCF7
Protocol: as §1, §2, §3, §4

HT29 (Colon Cancer) = test: NCI DTP tumor cell line screen (SRB), HT29
Protocol: as §1, §2, §3, §4

K-562 (Leukemia) = test: NCI DTP tumor cell line screen (SRB), K-562
Protocol: as §1, §2, §3, §4

PC-3 (Prostate Cancer) = test: NCI DTP tumor cell line screen (SRB), PC-3
Protocol: as §1, §2, §3, §4

UO-31 (Renal Cancer) = test: NCI DTP tumor cell line screen (SRB), UO-31
Protocol: as §1, §2, §3, §4

SK-MEL-2 (Melanoma) = test: NCI DTP tumor cell line screen (SRB), SK-MEL-2
Protocol: as §1, §2, §3, §4

[1] = tested on: NCI/ADR-RES (Breast Cancer)
Protocol: as §1, §2, §3, §4

MALME-3M (Melanoma) = test: NCI DTP tumor cell line screen (SRB), MALME-3M
Protocol: as §1, §2, §3, §4

786-0 (Renal Cancer) = test: NCI DTP tumor cell line screen (SRB), 786-0
Protocol: as §1, §2, §3, §4

[2] = tested on: MDA-MB-435 (Breast Cancer); test: NCI DTP tumor cell line screen (SRB), MDA-MB-435
Protocol: as §1, §2, §3, §4

[3] = tested on: sixty human tumor cell lines; test: NCI DTP sixty human tumor cell line screen (SRB), means over the panel
KM12 (Colon Cancer) = test: NCI DTP tumor cell line screen (SRB), KM12
Protocol: as §1, §2, §3, §4

[4] = tested on: NCI-H460 (Non-Small Cell Lung Cancer)
Protocol: as §1, §2, §3, §4

Compound: NCC(=O)Nc1ccc(-n2nc(C(F)(F)F)cc2-c2ccc3c(ccc4ccccc43)c2)cc1 [Compound 70, 2-Amino-N-{4-[5-(2-phenanthrenyl)-3-(trifluoromethyl)-1H-pyrazol-1-yl]-phenyl}-acetamide]
- TGI (SK-OV-3 (Ovarian Cancer)): 2.96E−06
- Mean Optical Densities (SK-OV-3 (Ovarian Cancer); Log10 Concentration −4.0): 0.302
- Mean Optical Densities (SK-OV-3 (Ovarian Cancer); Log10 Concentration −5.0): 0.083
- Percent Growth (SK-OV-3 (Ovarian Cancer); Log10 Concentration −5.0): −79%
- Mean Optical Densities (SK-OV-3 (Ovarian Cancer); Log10 Concentration −6.0): 1.262
- Percent Growth (SK-OV-3 (Ovarian Cancer); Log10 Concentration −6.0): 71%
- Mean Optical Densities (SK-OV-3 (Ovarian Cancer); Log10 Concentration −7.0): 1.597
- Percent Growth (SK-OV-3 (Ovarian Cancer); Log10 Concentration −7.0): 98%
- Mean Optical Densities (SK-OV-3 (Ovarian Cancer); Log10 Concentration −8.0): 1.514
- Percent Growth (SK-OV-3 (Ovarian Cancer); Log10 Concentration −8.0): 91%
- TGI (SK-MEL-5 (Melanoma)): 3.02E−06
- Mean Optical Densities (SK-MEL-5 (Melanoma); Log10 Concentration −4.0): 0.364
- Mean Optical Densities (SK-MEL-5 (Melanoma); Log10 Concentration −5.0): 0.136
- Percent Growth (SK-MEL-5 (Melanoma); Log10 Concentration −5.0): −75%
- Mean Optical Densities (SK-MEL-5 (Melanoma); Log10 Concentration −6.0): 1.659
- Percent Growth (SK-MEL-5 (Melanoma); Log10 Concentration −6.0): 69%
- Mean Optical Densities (SK-MEL-5 (Melanoma); Log10 Concentration −7.0): 1.958
- Percent Growth (SK-MEL-5 (Melanoma); Log10 Concentration −7.0): 88%
- Mean Optical Densities (SK-MEL-5 (Melanoma); Log10 Concentration −8.0): 1.995
- Percent Growth (SK-MEL-5 (Melanoma); Log10 Concentration −8.0): 91%
- Mean Optical Densities (COLO 205 (Colon Cancer); Log10 Concentration −4.0): 0.239
- Mean Optical Densities (COLO 205 (Colon Cancer); Log10 Concentration −5.0): 0.104
- Percent Growth (COLO 205 (Colon Cancer); Log10 Concentration −5.0): −53%
- Mean Optical Densities (COLO 205 (Colon Cancer); Log10 Concentration −6.0): 0.916
- Percent Growth (COLO 205 (Colon Cancer); Log10 Concentration −6.0): 58%
- Mean Optical Densities (COLO 205 (Colon Cancer); Log10 Concentration −7.0): 1.252
- Percent Growth (COLO 205 (Colon Cancer); Log10 Concentration −7.0): 87%
- Mean Optical Densities (COLO 205 (Colon Cancer); Log10 Concentration −8.0): 1.286
- Percent Growth (COLO 205 (Colon Cancer); Log10 Concentration −8.0): 89%
- TGI (MCF7 (Breast Cancer)): 2.72E−06
- Mean Optical Densities (MCF7 (Breast Cancer); Log10 Concentration −4.0): 0.255
- Mean Optical Densities (MCF7 (Breast Cancer); Log10 Concentration −5.0): 0.196
- Mean Optical Densities (MCF7 (Breast Cancer); Log10 Concentration −6.0): 0.982
- Mean Optical Densities (MCF7 (Breast Cancer); Log10 Concentration −7.0): 1.541
- Mean Optical Densities (MCF7 (Breast Cancer); Log10 Concentration −8.0): 1.566
- TGI (HT29 (Colon Cancer)): 2.64E−06
- Mean Optical Densities (HT29 (Colon Cancer); Log10 Concentration −4.0): 0.159
- Mean Optical Densities (HT29 (Colon Cancer); Log10 Concentration −5.0): 0.075
- Percent Growth (HT29 (Colon Cancer); Log10 Concentration −5.0): −65%
- Mean Optical Densities (HT29 (Colon Cancer); Log10 Concentration −6.0): 0.801
- Percent Growth (HT29 (Colon Cancer); Log10 Concentration −6.0): 47%
- Mean Optical Densities (HT29 (Colon Cancer); Log10 Concentration −7.0): 1.299
- Percent Growth (HT29 (Colon Cancer); Log10 Concentration −7.0): 88%
- Percent Growth (HT29 (Colon Cancer); Log10 Concentration −8.0): 92%
- TGI (K-562 (Leukemia)): 3.34E−06
- Mean Optical Densities (K-562 (Leukemia); Log10 Concentration −4.0): 0.247
- Mean Optical Densities (K-562 (Leukemia); Log10 Concentration −5.0): 0.209
- Percent Growth (K-562 (Leukemia); Log10 Concentration −5.0): −30%
- Mean Optical Densities (K-562 (Leukemia); Log10 Concentration −6.0): 0.681
- Percent Growth (K-562 (Leukemia); Log10 Concentration −6.0): 33%
- Mean Optical Densities (K-562 (Leukemia); Log10 Concentration −7.0): 1.022
- Percent Growth (K-562 (Leukemia); Log10 Concentration −7.0): 62%
- Mean Optical Densities (K-562 (Leukemia); Log10 Concentration −8.0): 1.435
- Percent Growth (K-562 (Leukemia); Log10 Concentration −8.0): 97%
- TGI (PC-3 (Prostate Cancer)): 2.38E−06
- Mean Optical Densities (PC-3 (Prostate Cancer); Log10 Concentration −4.0): 0.108
- Mean Optical Densities (PC-3 (Prostate Cancer); Log10 Concentration −5.0): 0.055
- Percent Growth (PC-3 (Prostate Cancer); Log10 Concentration −5.0): −77%
- Mean Optical Densities (PC-3 (Prostate Cancer); Log10 Concentration −6.0): 0.593
- Percent Growth (PC-3 (Prostate Cancer); Log10 Concentration −6.0): 47%
- Mean Optical Densities (PC-3 (Prostate Cancer); Log10 Concentration −7.0): 0.763
- Percent Growth (PC-3 (Prostate Cancer); Log10 Concentration −7.0): 69%
- Mean Optical Densities (PC-3 (Prostate Cancer); Log10 Concentration −8.0): 0.910
- Percent Growth (PC-3 (Prostate Cancer); Log10 Concentration −8.0): 89%
- TGI (UO-31 (Renal Cancer)): 3.29E−06
- Mean Optical Densities (UO-31 (Renal Cancer); Log10 Concentration −4.0): 0.285
- Mean Optical Densities (UO-31 (Renal Cancer); Log10 Concentration −5.0): 0.161
- Percent Growth (UO-31 (Renal Cancer); Log10 Concentration −5.0): −64%
- Mean Optical Densities (UO-31 (Renal Cancer); Log10 Concentration −6.0): 1.356
- Percent Growth (UO-31 (Renal Cancer); Log10 Concentration −6.0): 68%
- Mean Optical Densities (UO-31 (Renal Cancer); Log10 Concentration −7.0): 1.563
- Percent Growth (UO-31 (Renal Cancer); Log10 Concentration −7.0): 84%
- Mean Optical Densities (UO-31 (Renal Cancer); Log10 Concentration −8.0): 1.572
- Percent Growth (UO-31 (Renal Cancer); Log10 Concentration −8.0): 84%
- TGI (SK-MEL-2 (Melanoma)): 5.40E−06
- Mean Optical Densities (SK-MEL-2 (Melanoma); Log10 Concentration −4.0): 0.330
- Mean Optical Densities (SK-MEL-2 (Melanoma); Log10 Concentration −5.0): 0.289
- Mean Optical Densities (SK-MEL-2 (Melanoma); Log10 Concentration −6.0): 0.885
- Percent Growth (SK-MEL-2 (Melanoma); Log10 Concentration −6.0): 100%
- Mean Optical Densities (SK-MEL-2 (Melanoma); Log10 Concentration −7.0): 0.956
- Percent Growth (SK-MEL-2 (Melanoma); Log10 Concentration −7.0): 117%
- Mean Optical Densities (SK-MEL-2 (Melanoma); Log10 Concentration −8.0): 0.943
- Percent Growth (SK-MEL-2 (Melanoma); Log10 Concentration −8.0): 114%
- TGI [1]: 2.85E−06
- Mean Optical Densities ([1]; Log10 Concentration −4.0): 0.212
- Mean Optical Densities ([1]; Log10 Concentration −5.0): 0.229
- Percent Growth ([1]; Log10 Concentration −5.0): −59%
- Mean Optical Densities ([1]; Log10 Concentration −6.0): 1.217
- Percent Growth ([1]; Log10 Concentration −6.0): 49%
- Mean Optical Densities ([1]; Log10 Concentration −7.0): 1.878
- Percent Growth ([1]; Log10 Concentration −7.0): 98%
- Mean Optical Densities ([1]; Log10 Concentration −8.0): 1.883
- Percent Growth ([1]; Log10 Concentration −8.0): 98%
- TGI (MALME-3M (Melanoma)): 3.67E−06
- Mean Optical Densities (MALME-3M (Melanoma); Log10 Concentration −4.0): 0.290
- Mean Optical Densities (MALME-3M (Melanoma); Log10 Concentration −5.0): 0.218
- Mean Optical Densities (MALME-3M (Melanoma); Log10 Concentration −6.0): 1.102
- Mean Optical Densities (MALME-3M (Melanoma); Log10 Concentration −7.0): 1.128
- TGI (786-0 (Renal Cancer)): 2.85E−06
- Mean Optical Densities (786-0 (Renal Cancer); Log10 Concentration −4.0): 0.299
- Mean Optical Densities (786-0 (Renal Cancer); Log10 Concentration −5.0): 0.181
- Percent Growth (786-0 (Renal Cancer); Log10 Concentration −5.0): −72%
- Mean Optical Densities (786-0 (Renal Cancer); Log10 Concentration −6.0): 1.440
- Percent Growth (786-0 (Renal Cancer); Log10 Concentration −6.0): 60%
- Mean Optical Densities (786-0 (Renal Cancer); Log10 Concentration −7.0): 1.897
- Percent Growth (786-0 (Renal Cancer); Log10 Concentration −7.0): 95%
- Mean Optical Densities (786-0 (Renal Cancer); Log10 Concentration −8.0): 2.012
- Percent Growth (786-0 (Renal Cancer); Log10 Concentration −8.0): 104%
- TGI [2]: 3.14E−06
- Mean Optical Densities ([2]; Log10 Concentration −4.0): 0.347
- Mean Optical Densities ([2]; Log10 Concentration −5.0): 0.127
- Percent Growth ([2]; Log10 Concentration −5.0): −69%
- Mean Optical Densities ([2]; Log10 Concentration −6.0): 1.126
- Percent Growth ([2]; Log10 Concentration −6.0): 68%
- Mean Optical Densities ([2]; Log10 Concentration −7.0): 1.447
- Percent Growth ([2]; Log10 Concentration −7.0): 98%
- Mean Optical Densities ([2]; Log10 Concentration −8.0): 1.502
- Percent Growth ([2]; Log10 Concentration −8.0): 103%
- concentration range completely suppressing cell growth in a diverse range of tumor cell lines [3]: 3 to 5 µM
- GI50 ([3]; read-out: mean GI50 among the sixty cell lines, two-day treatment): 1200 nM
- mean TGI among the sixty cell lines ([3]; two-day treatment): 3200 nM
- TGI (KM12 (Colon Cancer)): 2.67E−06
- Mean Optical Densities (KM12 (Colon Cancer); Log10 Concentration −4.0): 0.264
- Mean Optical Densities (KM12 (Colon Cancer); Log10 Concentration −5.0): 0.146
- Percent Growth (KM12 (Colon Cancer); Log10 Concentration −5.0): −73%
- Mean Optical Densities (KM12 (Colon Cancer); Log10 Concentration −6.0): 1.425
- Percent Growth (KM12 (Colon Cancer); Log10 Concentration −6.0): 54%
- Mean Optical Densities (KM12 (Colon Cancer); Log10 Concentration −7.0): 2.044
- Percent Growth (KM12 (Colon Cancer); Log10 Concentration −7.0): 91%
- Mean Optical Densities (KM12 (Colon Cancer); Log10 Concentration −8.0): 2.151
- Percent Growth (KM12 (Colon Cancer); Log10 Concentration −8.0): 98%
- TGI [4]: 2.64E−06
- Mean Optical Densities ([4]; Log10 Concentration −4.0): 0.213
- Mean Optical Densities ([4]; Log10 Concentration −5.0): 0.173
- Mean Optical Densities ([4]; Log10 Concentration −6.0): 0.830
- Percent Growth ([4]; Log10 Concentration −6.0): 34%
- Mean Optical Densities ([4]; Log10 Concentration −7.0): 1.499
- Percent Growth ([4]; Log10 Concentration −7.0): 77%
- Mean Optical Densities ([4]; Log10 Concentration −8.0): 1.799
- Percent Growth ([4]; Log10 Concentration −8.0): 97%
